Data taken from patent US20260109732A1, “LIPID AMINES” (ModernaTX, Inc., priority 2021, published 2026).
Counter-ions that a name gives are not always drawn.

What was measured:
[1] = Encapsulation of mRNA nanoparticles with lipid amines using Ribogreen assay; assay type: physicochemical
Summary of the method: (§1)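 Ionizable lipid nanoparticles (IL1:DSPC:cholesterol:PEG-DMG-2K) formed by vortex mixing at pH 4, loaded with luciferase or CFTR mRNA at N:P 4.93, neutralized with TRIS pH 8.12, then modified with lipid amine SA50 at pH 7.5. Particle diameter and PDI read by DLS; mRNA encapsulation by Ribogreen assay.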

[2] = Diameter and PDI from DLS measurements of mRNA nanoparticles with lipid amines; assay type: physicochemical
Summary of the method: as §1

[3] = system: HeLa cells; test: Luciferase Protein Expression Assay in HeLa Cells; assay type: cell-based, Human; conditions: LNPs encapsulating Luciferase mRNA, 25 ng per well, N=4 wells; 5 h serum-free then 24 h; ONE-Glo
Summary of the method: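 HeLa cells received LNPs carrying luciferase mRNA (25 ng per well) or PBS in serum-free MEM for 5 h, then complete MEM for a further 24 h. Luciferase then read by ONE-Glo luminescence after lysis and reported as average RLU of 4 replicate wells.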

[4] = system: HeLa cells; test: CFTR Protein Expression Assay in HeLa Cells; assay type: cell-based, Human; conditions: LNPs encapsulating CFTR mRNA, N=4 wells; 5 h serum-free then 24 h; immunofluorescence vs PBS control
Summary of the method: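 HeLa cells dosed with CFTR mRNA LNPs (70 mM NaCl final buffer matrix) in serum-free MEM for 5 h, then complete MEM for 24 h. Fixed cells immunostained with anti-CFTR monoclonal and Alexa 488 secondary, imaged confocally; CFTR intensity per cell expressed as fold-change versus PBS buffer control, N=4 wells.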

[5] = CFTR mRNA nanoparticle with lipid amine
[6] = Luciferase mRNA nanoparticle modified with lipid amine

Structure (SMILES)	% Encapsulation (Ribogreen) [1, 5] [%]	% Encapsulation (Ribogreen) [1, 6] [%]	Diameter (nm) [2, 5] [nm]	PDI [2, 5]	Diameter (nm) [2, 6] [nm]	PDI [2, 6]	Average Relative Light Units ± Standard Deviation [3] [Relative Light Units]	Average fold-change in CFTR signal intensity per cell compared to buffer control ± standard deviation [4] [fold-change]
CCC(N)(CC)CCNCCCCN(CCC(N)(CC)CC)C(=O)CCSS[C@H]1CC[C@@]2(C)C(=CC[C@H]3[C@@H]4CC[C@H]([C@H](C)CCCC(C)C)[C@@]4(C)CC[C@@H]32)C1 [SA184, N-(3-amino-3-ethylpentyl)-N-(4-((3-amino-3-ethylpentyl)amino)butyl)-3-(((3S,8S,9S,10R,13R,14S,17R)-10,13-dimethyl-17-((R)-6-methylheptan-2-yl)-2,3,4,7,8,9,10,11,12,13,14,15,16,17-tetradecahydro-1H-cyclopenta[a]phenanthren-3-yl)disulfaneyl)propanamide trihydrochloride]	99.0	98.8	71	0.13	74	0.12	26222.4 ± 4612.1	11.3 ± 0.7
CC[C@H](CC[C@@H](C)[C@H]1CC[C@H]2[C@@H]3CC=C4C[C@@H](OC(=O)CCC(=O)N(CCCCNCCC(C)(C)N)CCC(C)(C)N)CC[C@]4(C)[C@H]3CC[C@]12C)C(C)C [SA161, (3S,8S,9S,10R,13R,14S,17R)-17-((2R,5R)-5-ethyl-6-methylheptan-2-yl)-10,13-dimethyl-2,3,4,7,8,9,10,11,12,13,14,15,16,17-tetradecahydro-1H-cyclopenta[a]phenanthren-3-yl 4-((3-amino-3-methylbutyl)(4-((3-amino-3-methylbutyl)amino)butyl)amino)-4-oxobutanoate trihydrochloride]	99.6	99.6	74.2	0.15	77	0.16	17839.3 ± 7760	14.1 ± 1.5
CC(C)CCC[C@@H](C)[C@H]1CC[C@H]2[C@@H]3CC=C4C[C@@H](SSCCC(=O)N(CCCN)CCCCCCCCN)CC[C@]4(C)[C@H]3CC[C@]12C [SA97, N-(8-Aminooctyl)-N-(3-aminopropyl)-3-(((3S,8S,9S,10R,13R,14S,17R)-10,13-dimethyl-17-((R)-6-methylheptan-2-yl)-2,3,4,7,8,9,10,11,12,13,14,15,16,17-tetradecahydro-1H-cyclopenta[a]phenanthren-3-yl)disulfaneyl)propanamide dihydrochloride]	98.4	98.8	83.2	0.12	72	0.16	13144.4 ± 4350.5	5.3 ± 1.0
CC(C)CCC[C@@H](C)[C@H]1CC[C@H]2[C@@H]3CC=C4C[C@@H](OC(=O)N(CCCCNCC5(CN)CC5)CC5(CN)CC5)CC[C@]4(C)[C@H]3CC[C@]12C.Cl.Cl.Cl [SA128, (3S,8S,9S,10R,13R,14S,17R)-10,13-dimethyl-17-((R)-6-methylheptan-2-yl)-2,3,4,7,8,9,10,11,12,13,14,15,16,17-tetradecahydro-1H-cyclopenta[a]phenanthren-3-yl ((1-(aminomethyl)cyclopropyl)methyl)(4-(((1-(aminomethyl)cyclopropyl)methyl)amino)butyl)carbamate trihydrochloride]	99.4	99.4	74.5	0.13	75	0.16	39386.4 ± 5261.4	19.9 ± 0.4
CC(C)CCC[C@@H](C)[C@H]1CC[C@H]2[C@@H]3CC=C4C[C@@H](OC(=O)CN(CCCCCCCCN)C(=O)CCCCCN)CC[C@]4(C)[C@H]3CC[C@]12C [SA123, (3S,8S,9S,10R,13R,14S,17R)-10,13-dimethyl-17-((R)-6-methylheptan-2-yl)-2,3,4,7,8,9,10,11,12,13,14,15,16,17-tetradecahydro-1H-cyclopenta[a]phenanthren-3-yl N-(6-aminohexanoyl)-N-(8-aminooctyl)glycinate dihydrochloride]	99.0	99.5	83.2	0.12	73	0.14	28520.5 ± 6429.4	14.7 ± 1.0
CC[C@H](CC[C@@H](C)[C@H]1CC[C@H]2[C@@H]3CC=C4C[C@@H](OC(=O)CCCC(=O)N(CCCCNCCC(C)N)CCC(C)N)CC[C@]4(C)[C@H]3CC[C@]12C)C(C)C.Cl.Cl.Cl (stereo partly drawn) [SA136, (3S,8S,9S,10R,13R,14S,17R)-17-((2R,5R)-5-ethyl-6-methylheptan-2-yl)-10,13-dimethyl-2,3,4,7,8,9,10,11,12,13,14,15,16,17-tetradecahydro-1H-cyclopenta[a]phenanthren-3-yl 5-((3-aminobutyl)(4-((3-aminobutyl)amino)butyl)amino)-5-oxopentanoate trihydrochloride]	97.7	99.7	76.9	0.13	75	0.16	16245.8 ± 6554.6	15.8 ± 1.4
CC(C)CCC[C@@H](C)[C@H]1CC[C@H]2[C@@H]3CC=C4C[C@@H](OC(=O)CC(=O)N(CCCN)CCCCNCCCN)CC[C@]4(C)[C@H]3CC[C@]12C.Cl.Cl.Cl [SA59, (3S,8S,9S,10R,13R,14S,17R)-10,13-Dimethyl-17-((R)-6-methylheptan-2-yl)-2,3,4,7,8,9,10,11,12,13,14,15,16,17-tetradecahydro-1H-cyclopenta[a]phenanthren-3-yl 3-((3-aminopropyl)(4-((3-aminopropyl)amino)butyl)amino)-3-oxopropanoate trihydrochloride]	99.6	99.7	76.9	0.15	74	0.15	17590.1 ± 6267.4	5.6 ± 0.5
CC(C)CCC[C@@H](C)[C@H]1CC[C@H]2[C@@H]3CC=C4C[C@@H](OC(=O)N(CCCCNCC(C)(C)CN)CC(C)(C)CN)CC[C@]4(C)[C@H]3CC[C@]12C [SA77, (3S,8S,9S,10R,13R,14S,17R)-10,13-dimethyl-17-((R)-6-methylheptan-2-yl)-2,3,4,7,8,9,10,11,12,13,14,15,16,17-tetradecahydro-1H-cyclopenta[a]phenanthren-3-yl (3-amino-2,2-dimethylpropyl)(4-((3-amino-2,2-dimethylpropyl)amino)butyl)carbamate trihydrochloride]	100	98.2	83.9	0.13	74	0.20	39191.9 ± 4319	12.2 ± 1.3
CC(C)CCC[C@@H](C)[C@H]1CC[C@H]2[C@@H]3CC=C4C[C@@H](OC(=O)CCCC(=O)N(CCCCNCCC(C)N)CCC(C)N)CC[C@]4(C)[C@H]3CC[C@]12C.Cl.Cl.Cl (stereo partly drawn) [SA125, (3S,8S,9S,10R,13R,14S,17R)-10,13-dimethyl-17-((R)-6-methylheptan-2-yl)-2,3,4,7,8,9,10,11,12,13,14,15,16,17-tetradecahydro-1H-cyclopenta[a]phenanthren-3-yl 5-((3-aminobutyl)(4-((3-aminobutyl)amino)butyl)amino)-5-oxopentanoate trihydrochloride]	99.0	99.7	75.0	0.15	77	0.19	15625.8 ± 3399.4	14.2 ± 0.9
